Measured values published in ChEMBL document CHEMBL5154690, “Discovery of a tricyclic farnesoid X receptor agonist HEC96719, a clinical candidate for treatment of non-alcoholic steatohepatitis” (Eur J Med Chem, 2022).
Activity calls are given as the source filed them. The rule behind the calls is not given here.

Columns and labels:
[1] = Drug recovery in skin of male Sprague-Dawley rat at 4.5 mg/kg, po administered as C14-lableled compound and assessed as radioactivity and measured at 24 hrs; assay type: ADME, organism-based, Skin of body; settings: in vivo, BLD = below limit of detection
[2] = Drug recovery in plasma of male Sprague-Dawley rat at 4.5 mg/kg, po administered as C14-lableled compound and assessed as radioactivity and measured at 24 hrs; assay type: ADME, organism-based; settings: in vivo, BLD = below limit of detection
[3] = Ratio of drug level in pancreas to plasma in male Sprague-Dawley rat at 4.5 mg/kg, po administered as C14-lableled compound and measured at 0.25 to 6 hrs; assay type: ADME, organism-based; settings: other tissue, time 0.25-6 hrs
[4] = Drug recovery in heart of male Sprague-Dawley rat at 4.5 mg/kg, po administered as C14-lableled compound and assessed as radioactivity and measured at 24 hrs; assay type: ADME, organism-based; settings: in vivo, BLD = below limit of detection
[5] = target: Voltage-gated inwardly rectifying potassium channel KCNH2 (Homo sapiens, UniProt Q12809); assay: Inhibition of hERG; assay type: toxicity
Voltage-gated inwardly rectifying potassium channel KCNH2, sequence (Q12809 whole entry): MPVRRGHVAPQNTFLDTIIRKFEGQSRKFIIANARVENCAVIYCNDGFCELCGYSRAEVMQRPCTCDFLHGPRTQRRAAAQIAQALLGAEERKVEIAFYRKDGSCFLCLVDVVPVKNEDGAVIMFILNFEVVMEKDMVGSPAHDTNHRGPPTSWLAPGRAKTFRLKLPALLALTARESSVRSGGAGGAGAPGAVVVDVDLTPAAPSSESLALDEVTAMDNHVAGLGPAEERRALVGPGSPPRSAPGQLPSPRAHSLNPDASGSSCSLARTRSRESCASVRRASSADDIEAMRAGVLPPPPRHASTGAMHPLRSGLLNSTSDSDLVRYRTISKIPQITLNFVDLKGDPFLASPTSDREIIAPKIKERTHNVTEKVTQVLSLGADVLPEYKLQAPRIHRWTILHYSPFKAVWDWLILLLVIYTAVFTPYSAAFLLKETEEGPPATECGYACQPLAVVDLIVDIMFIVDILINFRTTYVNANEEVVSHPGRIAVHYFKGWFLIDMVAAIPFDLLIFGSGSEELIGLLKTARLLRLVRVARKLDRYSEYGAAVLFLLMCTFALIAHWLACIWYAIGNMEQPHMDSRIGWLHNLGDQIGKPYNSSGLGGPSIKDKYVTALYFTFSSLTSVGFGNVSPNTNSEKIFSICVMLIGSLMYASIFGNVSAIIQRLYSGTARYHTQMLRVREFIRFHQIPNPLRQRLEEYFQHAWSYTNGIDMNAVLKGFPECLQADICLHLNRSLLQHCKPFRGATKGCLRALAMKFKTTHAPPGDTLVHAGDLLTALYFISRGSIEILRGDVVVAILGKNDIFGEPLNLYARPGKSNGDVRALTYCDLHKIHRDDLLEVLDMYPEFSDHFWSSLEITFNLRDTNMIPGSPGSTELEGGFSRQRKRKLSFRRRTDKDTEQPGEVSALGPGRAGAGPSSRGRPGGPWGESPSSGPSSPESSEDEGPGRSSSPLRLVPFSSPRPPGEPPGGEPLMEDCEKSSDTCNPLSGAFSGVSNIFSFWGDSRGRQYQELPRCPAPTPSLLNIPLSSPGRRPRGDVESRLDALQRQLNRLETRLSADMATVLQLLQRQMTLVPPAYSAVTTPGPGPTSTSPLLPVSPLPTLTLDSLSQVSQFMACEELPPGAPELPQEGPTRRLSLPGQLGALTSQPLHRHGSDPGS

[6] = Drug recovery in liver of male Sprague-Dawley rat at 4.5 mg/kg, po administered as C14-lableled compound and assessed as radioactivity and measured at 6 hrs; assay type: ADME, organism-based; settings: in vivo
Mus musculus [7] = assay: Antifibrotic activity in C57BL/6 mouse model of CCI4-induced liver fibrosis assessed as reduction in fibrosis area at 1 mg/kg, po administered once daily for 4 weeks; assay type: functional, organism-based
[8] = Drug recovery in pancreas of male Sprague-Dawley rat at 4.5 mg/kg, po administered as C14-lableled compound and assessed as radioactivity and measured at 24 hrs; assay type: ADME, organism-based; settings: in vivo
[9] = target: T1, Peroxisome proliferator-activated receptor delta (Homo sapiens, UniProt Q03181); assay: Agonist activity at PPARdelta (unknown origin)
T1 sequence (Q03181 whole entry): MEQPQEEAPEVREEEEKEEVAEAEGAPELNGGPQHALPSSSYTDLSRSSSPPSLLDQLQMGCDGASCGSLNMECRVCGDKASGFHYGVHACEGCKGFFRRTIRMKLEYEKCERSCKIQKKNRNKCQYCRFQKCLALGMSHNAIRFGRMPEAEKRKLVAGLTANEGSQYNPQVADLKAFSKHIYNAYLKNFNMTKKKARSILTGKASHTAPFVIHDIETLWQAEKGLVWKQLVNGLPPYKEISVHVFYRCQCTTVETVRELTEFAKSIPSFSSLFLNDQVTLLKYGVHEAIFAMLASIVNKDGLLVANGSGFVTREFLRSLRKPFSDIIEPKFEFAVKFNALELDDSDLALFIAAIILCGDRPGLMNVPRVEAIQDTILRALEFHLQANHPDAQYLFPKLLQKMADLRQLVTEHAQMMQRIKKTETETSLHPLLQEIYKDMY

[10] = Drug recovery in pancreas of male Sprague-Dawley rat at 4.5 mg/kg, po administered as C14-lableled compound and assessed as radioactivity and measured at 0.25 hrs; assay type: ADME, organism-based; settings: in vivo
[11] = Drug recovery in ileum of male Sprague-Dawley rat at 4.5 mg/kg, po administered as C14-lableled compound and assessed as radioactivity and measured at 0.25 hrs; assay type: ADME, organism-based; settings: in vivo
[12] = Drug recovery in spleen of male Sprague-Dawley rat at 4.5 mg/kg, po administered as C14-lableled compound and assessed as radioactivity and measured at 24 hrs; assay type: ADME, organism-based; settings: in vivo, BLD = below limit of detection
[13] = Volume of distribution at steady state in male Sprague-Dawley rat at 1 mg/kg, iv measured by LC-MS/MS analysis; assay type: ADME, organism-based; settings: in vivo, read-out: Vdss
[14] = Drug recovery in spleen of male Sprague-Dawley rat at 4.5 mg/kg, po administered as C14-lableled compound and assessed as radioactivity and measured at 6 hrs; assay type: ADME, organism-based; settings: in vivo, BLD = below limit of detection
[15] = Drug recovery in plasma of male Sprague-Dawley rat at 4.5 mg/kg, po administered as C14-lableled compound and assessed as radioactivity and measured at 1 hr; assay type: ADME, organism-based; settings: in vivo
[16] = Cmax in male Sprague-Dawley rat at 5 mg/kg, po measured by LC-MS/MS analysis; assay type: ADME, organism-based; set-up: dose 5 mg/kg, route po; settings: in vivo
[17] = Volume of distribution at steady state in male Beagle dog at 1 mg/kg, iv measured by LC-MS/MS analysis; assay type: ADME, organism-based, Canis lupus familiaris; settings: in vivo, read-out: Vdss
[18] = target: T2, Peroxisome proliferator-activated receptor gamma (Homo sapiens, UniProt P37231); assay: Agonist activity at PPARgamma (unknown origin)
T2 sequence (P37231 whole entry): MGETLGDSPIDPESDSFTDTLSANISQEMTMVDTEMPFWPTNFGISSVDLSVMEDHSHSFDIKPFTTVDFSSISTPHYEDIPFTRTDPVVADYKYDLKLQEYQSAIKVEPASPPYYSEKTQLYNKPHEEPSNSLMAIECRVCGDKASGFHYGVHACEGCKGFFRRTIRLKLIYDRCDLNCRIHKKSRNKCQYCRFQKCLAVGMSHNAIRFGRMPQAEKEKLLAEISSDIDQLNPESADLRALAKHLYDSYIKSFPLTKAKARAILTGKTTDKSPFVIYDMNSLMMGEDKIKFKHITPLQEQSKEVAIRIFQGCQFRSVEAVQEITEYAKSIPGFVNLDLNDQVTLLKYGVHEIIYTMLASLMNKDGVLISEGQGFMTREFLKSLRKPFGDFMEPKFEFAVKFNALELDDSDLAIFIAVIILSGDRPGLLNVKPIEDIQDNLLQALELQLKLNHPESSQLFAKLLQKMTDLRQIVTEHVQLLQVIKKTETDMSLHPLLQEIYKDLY

[19] = Ratio of drug level in heart to plasma in male Sprague-Dawley rat at 4.5 mg/kg, po administered as C14-lableled compound and measured at 0.25 to 6 hrs; assay type: ADME, organism-based; settings: other tissue, time 0.25-6 hrs
[20] = Drug recovery in skin of male Sprague-Dawley rat at 4.5 mg/kg, po administered as C14-lableled compound and assessed as radioactivity and measured at 1 hr; assay type: ADME, organism-based, Skin of body; settings: in vivo
[21] = Drug recovery in brain of male Sprague-Dawley rat at 4.5 mg/kg, po administered as C14-lableled compound and assessed as radioactivity and measured at 0.25 hrs; assay type: ADME, organism-based; settings: in vivo, BLD = below limit of detection
[22] = Drug recovery in brain of male Sprague-Dawley rat at 4.5 mg/kg, po administered as C14-lableled compound and assessed as radioactivity and measured at 24 hrs; assay type: ADME, organism-based; settings: in vivo, BLD = below limit of detection
[23] = Drug recovery in lung of male Sprague-Dawley rat at 4.5 mg/kg, po administered as C14-lableled compound and assessed as radioactivity and measured at 24 hrs; assay type: ADME, organism-based; settings: in vivo, BLD = below limit of detection
Mus musculus [24] = assay: Anti-NASH activity against high fat (HF) diet-induced nonalcoholic steatohepatitis in leptin-deficient ob/ob mouse model assessed as reduction in serum ALT level at 0.1 to 1 mg/kg, po administered once daily from week 5 to 10; assay type: functional, organism-based; settings: dose 0.1-1 mg/kg
[25] = Mutagenecity in Salmonella typhimurium TA98 measured by Ames test; assay type: toxicity; settings: salmonella enterica subsp. enterica serovar typhimurium
[26] = Volume of distribution at steady state in male C57BL/6 mouse at 2 mg/kg, iv measured by LC-MS/MS analysis; assay type: ADME, organism-based; settings: in vivo, read-out: Vdss
Mus musculus [27] = assay: Anti-NASH activity in western style diet-induced nonalcoholic steatohepatitis model of male C57BL/6 mouse assessed as reduction in NASH activity score (NAS) at 1 mg/kg, po administered once daily from week 32 to 44; assay type: functional, organism-based

Compound: O=C(O)c1ccc2c(c1)Oc1ccc(OCc3c(-c4c(Cl)cccc4Cl)noc3C3CC3)nc1C1(CC1)C2
- Drug recovery [1]: Bld
- Drug recovery [2]: Bld
- Ratio [3]: 0.8
- Drug recovery [4]: Bld
- IC50 [5]: > 5.24 µM
- Drug recovery [6]: 521 ngequiv/g
- Activity (Mus musculus [7]): Active
- Drug recovery [8]: 206 ngequiv/g
- EC50 [9]: > 10 µM
- Drug recovery [10]: 177 ngequiv/g
- Drug recovery [11]: 606 ngequiv/g
- Drug recovery [12]: Bld
- Vd [13]: 0.65 L/kg
- Drug recovery [14]: Bld
- Drug recovery [15]: 305 ngequiv/g
- Cmax [16]: 1090 ng/mL
- Vd [17]: 1.12 L/kg
- EC50 [18]: > 10 µM
- Ratio [19]: 1
- Drug recovery [20]: 117 ngequiv/g
- Drug recovery [21]: Bld
- Drug recovery [22]: Bld
- Drug recovery [23]: Bld
- Activity (Mus musculus [24]): Active
- Activity [25]: Non-Toxic
- Vd [26]: 3.83 L/kg
- Activity (Mus musculus [27]): Active
